Where no end group is shown, it is not given here. [ ]: non-standard residue; d: D form. The star is where a group is joined. X1 = CCCCCCCCCCCCCCCC(=O)N[C@@H](CCC(=O)NCCCC[C@H](NC(=O)CCOCCOCCOCCOCCNC(=O)CNC(=O)CCN1C(=O)CC(*)C1=O)C(=O)NCCOCCOCCOCCOCCC(=O)N[C@@H](CCCCNC(=O)CC[C@H](NC(=O)CCCCCCCCCCCCCCCCC(=O)O)C(=O)O)C(=O)OC)C(=O)O; Aib = CC(C)(N)C(=O)O
Key:
[1] = native GLP-1; cited from earlier work
db/db mice = assay: Blood glucose control after a single subcutaneous dose in db/db mice; type: in vivo, mouse; conditions: single s.c. dose, 72 h postinjection

| Compound | intravenous half-life [1] [min] | blood sugar reduction (Δglucose from baseline) (db/db mice) [mmol/L] |
| --- | --- | --- |
| CC[C@H](C)[C@H](NC(=O)[C@H](Cc1ccccc1)NC(=O)[C@H](CCC(=O)O)NC(=O)[C@H](CCCCN)NC(=O)[C@H](C)NC(=O)[C@H](C)NC(=O)[C@H](CCC(N)=O)NC(=O)CNC(=O)[C@H](CCC(=O)O)NC(=O)[C@H](CC(C)C)NC(=O)[C@H](Cc1ccc(O)cc1)NC(=O)[C@H](CO)NC(=O)[C@H](CO)NC(=O)[C@@H](NC(=O)[C@H](CC(=O)O)NC(=O)[C@H](CO)NC(=O)[C@@H](NC(=O)[C@H](Cc1ccccc1)NC(=O)[C@@H](NC(=O)CNC(=O)[C@H](CCC(=O)O)NC(=O)[C@H](C)NC(=O)[C@@H](N)Cc1c[nH]cn1)[C@@H](C)O)[C@@H](C)O)C(C)C)C(=O)N[C@@H](C)C(=O)N[C@@H](Cc1c[nH]c2ccccc12)C(=O)N[C@@H](CC(C)C)C(=O)N[C@H](C(=O)N[C@@H](CCCCN)C(=O)NCC(=O)N[C@@H](CCCN=C(N)N)C(=O)NCC(=O)O)C(C)C [GLP-1, glucagon-like peptide-1] | 1.5 to 2 | – |
| H[Aib]EGTFTSDVSSYLEGQAAKEFIAWLVRGRGGGGSGGGGSGGGGSGC(X1) [TE-8131] | – | -8.2 ± 1.4 |

Reference: PMC11956005 (Journal of Medicinal Chemistry, 2025)
